According to PubChem BioAssay AID1963847 (Molecular Pharmacology Branch, DTP, NCI, 2024):
Several values for one entry are separate records, joined by “and”; a condition that tells them apart may be missing. Identical values can stand only once.

Test system: 415267-285-R-J2-PDC complex spheroid viability
Assay: Anticancer human tumor 415267-285-R-J2-PDC patient-derived breast carcinoma cell line growth inhibition [POLQ]
Conditions: for viability, T/C: stronger effect = lower value
Method: Multicellular complex tumor spheroid response to Polymerase (POL) inhibitors (novobiocin, ART-558, RP6685) in combination with a variety of drugs and investigational agents in selected tumor cell lines
The POL inhibitors (novobiocin, ART-558, and RP6685) were evaluated both individually and in combination with standard of care and investigational anticancer small molecules within a complex spheroid model of solid tumors. . Complex spheroids include a stromal component modeled by human endothelial cells (HUVEC) and fibroblasts modeled by human mesenchymal stem cells (MSCs). The concentration ranges selected for each drug and investigational agent were based upon clinically achievable concentrations if the clinical Cmax of the agent was known.
Compounds. The drugs and investigational agents: novobiocin (NSC847541), ART-558 (NSC835418), RP-6685 (NSC848927), peposertib (NSC802822), ceralasertib (NSC780249), elimusertib (NSC800525), camonsertib (NSC841442), AZD-1390 (NSC803789), olaparib (NSC753686), talazoparib (NSC767125), rucaparib (NSC756644), sotorasib (NSC818433), MRTX-1133 (NSC836407), SN-38 (NSC673596), topotecan (NSC609699), epotoside (NSC141540), doxorubicin (NSC123127), gemcitabine (NSC613327), 5-fluorouracil (NSC19893), paclitaxel (NSC125973), vemurafenib (NSC761431), MSA-2 (NSC828583), SN-011 (NSC837082), adavosertib (NSC754352), prexasertib (NSC758257), carboplatin (NSC241240) and oxaliplatin (NSC266046), were obtained from the National Cancer Institute (NCI) Developmental Therapeutics Program Chemical Repository (21). The FDA-approved anticancer drug set is available from the Developmental Therapeutics Program at https://dtp.cancer.gov/organization/dscb/obtaining/. […] The stock solutions were prepared in dimethyl sulfoxide (DMSO, Sigma-Aldrich, St. Louis, MO, cat. D2650), except for the platinum compounds which were prepared in saline (Quality Biological, Gaithersburg, MD, cat. 114-055-101), at 800-fold the tested concentration and stored at -70 degrees C prior to their use. All drugs and investigational agents were tested over a range starting from a high concentration at or near the clinical Cmax and decreasing in half-log increments. If the clinical Cmax for an agent had not been determined, the highest concentration tested was 10 microM, except for SN-38, which was tested at a high concentration of 1 microM.
Cell Culture. All cells were maintained in an incubator at 37 degrees C and 5% CO2 with 95% humidity. The PDC lines were cultured according to standard operating procedures established by the NCI PDMR (https://pdmr.cancer.gov). Table 3 of the manuscript, lists the cell lines along with the number of the three cell types plated to form the mct-spheroids and media for tumor cell growth. After thawing, all PDC lines, except 997537-175-T-J1-PDC and 415267-285-R-J2-PDC, were cultured in Matrigel-coated flasks prepared with a working solution of 1X Ham's F-12 nutrient mix, without supplementation (Thermo Fisher Scientific, cat. 11765054), 100 U/mL penicillin-streptomycin (Thermo Fisher Scientific, cat. 15140122), and 2.5% Matrigel (Corning Inc., Corning, NY, cat. 354248) for the first three passages. The two PDC lines 997537-175-T-J1-PDC and 415267-285-R-J2-PDC were cultured on uncoated flasks. The 857933-349-R-J2-PDC line was cultured in 6C/Colon 1B media containing advanced DMEM/F-12 (Thermo Fisher Scientific, cat. 12634028), 10 mM HEPES (Thermo Fisher Scientific, cat. 15630080), 1X GlutaMAX supplement (Thermo Fisher Scientific, cat. 35050061), 0.1 mg/mL primocin (InvivoGen, San Diego, CA, cat. ant-pm-2), 10% defined fetal bovine serum, heat inactivated (HyClone Laboratories Inc., Logan, UT, cat. SH30070.03HI), 50% L-WRN conditioned media (ATCC, cat. CRL-3276), 1.25 mM N-Acetyl-L-cysteine (Sigma-Aldrich, cat. A9165), 10 mM nicotinamide (Sigma-Aldrich, cat. N0636), 1X B-27 supplement (Thermo Fisher Scientific, cat. 17504044), 1X N-2 supplement (Thermo Fisher Scientific, cat. […]

[1] = curve of first compound, second compound 0.0316 µM
[2] = curve of first compound, second compound 0.1 µM
[3] = curve of first compound, second compound 0.316 µM
[4] = curve of first compound, second compound 1 µM
[5] = curve of first compound, second compound 3.16 µM
[6] = curve of first compound, second compound 10 µM
[7] = second compound 0.0316 µM, first compound 0.0316 µM
[8] = second compound 0.0316 µM, first compound 0.1 µM
[9] = second compound 0.0316 µM, first compound 0.316 µM
[10] = second compound 0.0316 µM, first compound 1 µM
[11] = second compound 0.0316 µM, first compound 3.16 µM
[12] = second compound 0.0316 µM, first compound 10 µM
[13] = second compound 0.1 µM, first compound 0.0316 µM
[14] = second compound 0.1 µM, first compound 0.1 µM
[15] = second compound 0.1 µM, first compound 0.316 µM
[16] = second compound 0.1 µM, first compound 1 µM
[17] = second compound 0.1 µM, first compound 3.16 µM
[18] = second compound 0.1 µM, first compound 10 µM
[19] = second compound 0.316 µM, first compound 0.0316 µM
[20] = second compound 0.316 µM, first compound 0.1 µM
[21] = second compound 0.316 µM, first compound 0.316 µM
[22] = second compound 0.316 µM, first compound 1 µM
[23] = second compound 0.316 µM, first compound 3.16 µM
[24] = second compound 0.316 µM, first compound 10 µM
[25] = second compound 1 µM, first compound 0.0316 µM
[26] = second compound 1 µM, first compound 0.1 µM
[27] = second compound 1 µM, first compound 0.316 µM
[28] = second compound 1 µM, first compound 1 µM
[29] = second compound 1 µM, first compound 3.16 µM
[30] = second compound 1 µM, first compound 10 µM
[31] = second compound 3.16 µM, first compound 0.0316 µM
[32] = second compound 3.16 µM, first compound 0.1 µM
[33] = second compound 3.16 µM, first compound 0.316 µM
[34] = second compound 3.16 µM, first compound 1 µM
[35] = second compound 3.16 µM, first compound 3.16 µM
[36] = second compound 3.16 µM, first compound 10 µM
[37] = second compound 10 µM, first compound 0.0316 µM
[38] = second compound 10 µM, first compound 0.1 µM
[39] = second compound 10 µM, first compound 0.316 µM
[40] = second compound 10 µM, first compound 1 µM
[41] = second compound 10 µM, first compound 3.16 µM
[42] = second compound 10 µM, first compound 10 µM
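Further: spheroids exposed to compounds for one week before readout.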
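Wherever viability, T/C is given: luminescence used as stand-in measure of viable cells; 100% = DMSO vehicle control viability.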

For `CCc1cc2c(N3CCc4c(cc(Cn5ccnc5)cc4-c4cn(C)nc4C(F)(F)F)C3=O)cc(C)nc2c(OC)n1` + Cc1cccc(N(C)C(=O)C2C(O)CCN2c2nc(C)cc(C(F)(F)F)c2C#N)c1, the IC50 [1] was > 10 µM, the IC50 [2] was > 10 µM and the IC50 [3] was > 10 µM. For the same molecule, the IC50 [4] was > 10 µM, the IC50 [5] was > 10 µM and the IC50 [6] was > 10 µM. The viability, T/C [7] was 92.6%, the viability, T/C [8] was 98.2% and the viability, T/C [9] was 82%. For the same molecule, the viability, T/C [10] was 91.5%, the viability, T/C [11] was 90% and the viability, T/C [12] was 77.1%. For the same molecule, the viability, T/C [13] was 93%, the viability, T/C [14] was 89.3% and the viability, T/C [15] was 83%. For the same molecule, the viability, T/C [16] was 89.8%, the viability, T/C [17] was 81% and the viability, T/C [18] was 71.7%. It also gave a viability, T/C [19] of 97.7%, a viability, T/C [20] of 91.4% and a viability, T/C [21] of 95.1%. The viability, T/C [22] was 89.7%, the viability, T/C [23] was 85.1% and the viability, T/C [24] was 80.2%. It also gave a viability, T/C [25] of 102%, a viability, T/C [26] of 81.4% and a viability, T/C [27] of 84.5%. The viability, T/C [28] was 91.7%, the viability, T/C [29] was 88.7% and the viability, T/C [30] was 74.7%. The viability, T/C [31] was 92.3%, the viability, T/C [32] was 99.7% and the viability, T/C [33] was 90.7%. The viability, T/C [34] was 89.8%, the viability, T/C [35] was 84.8% and the viability, T/C [36] was 87.9%. It also gave a viability, T/C [37] of 90.3%, a viability, T/C [38] of 95.7% and a viability, T/C [39] of 89.2%. For the same molecule, the viability, T/C [40] was 91.7%, the viability, T/C [41] was 81.2% and the viability, T/C [42] was 81.7%.

`COc1cccc2c1C(=O)c1c(O)c3c(c(O)c1C2=O)CC(O)(C(=O)CO)CC3OC1CC(N)C(O)C(C)O1` (configuration not stated) was tested, and the viability, T/C (compound 0.0316 µM) was 35.4% and 85.5% and 41%, the viability, T/C (compound 0.1 µM) was 9.21% and 18.3% and 12.6% and the viability, T/C (compound 0.316 µM) was 5.21% and 3.68% and 5.75%. The viability, T/C (compound 1 µM) was 0.77% and 1.01% and 0.92%, the viability, T/C (compound 3.16 µM) was 2.13% and 1.47% and 1.31% and the viability, T/C (compound 10 µM) was 2.79% and 3.72% and 2.89%. The IC50 (curve of compound) was < 0.0316 µM and 0.0581 µM.

With `COc1cc(C2c3cc4c(cc3C(OC3OC5COC(C)OC5C(O)C3O)C3COC(=O)C23)OCO4)cc(OC)c1O` (configuration not stated) + Cc1cccc(N(C)C(=O)C2C(O)CCN2c2nc(C)cc(C(F)(F)F)c2C#N)c1 the IC50 [1] was 0.136 µM, the IC50 [2] was 0.126 µM and the IC50 [3] was 0.107 µM. For the same molecule, the IC50 [4] was 0.125 µM, the IC50 [5] was 0.103 µM and the IC50 [6] was 0.0899 µM. It also gave a viability, T/C [7] of 96%, a viability, T/C [8] of 64.5% and a viability, T/C [9] of 10.3%. It also gave a viability, T/C [10] of 6.03%, a viability, T/C [11] of 5.96% and a viability, T/C [12] of 6.13%. It also gave a viability, T/C [13] of 83.3%, a viability, T/C [14] of 58.7% and a viability, T/C [15] of 15%. It also gave a viability, T/C [16] of 5.93%, a viability, T/C [17] of 6.54% and a viability, T/C [18] of 7.34%. For the same molecule, the viability, T/C [19] was 96.4%, the viability, T/C [20] was 52.3% and the viability, T/C [21] was 14.2%. For the same molecule, the viability, T/C [22] was 7.66%, the viability, T/C [23] was 5.87% and the viability, T/C [24] was 5.74%. The viability, T/C [25] was 91.3%, the viability, T/C [26] was 58.8% and the viability, T/C [27] was 13.1%. The viability, T/C [28] was 6.58%, the viability, T/C [29] was 4.68% and the viability, T/C [30] was 6.56%. For the same molecule, the viability, T/C [31] was 93.7%, the viability, T/C [32] was 50.9% and the viability, T/C [33] was 10.1%. For the same molecule, the viability, T/C [34] was 7.37%, the viability, T/C [35] was 5.2% and the viability, T/C [36] was 6.34%. It also gave a viability, T/C [37] of 79.7%, a viability, T/C [38] of 47% and a viability, T/C [39] of 11%. For the same molecule, the viability, T/C [40] was 7.78%, the viability, T/C [41] was 5.72% and the viability, T/C [42] was 5.96%.

For `COC1C(OC(N)=O)C(O)C(Oc2ccc3c(O)c(NC(=O)c4ccc(O)c(CC=C(C)C)c4)c(=O)oc3c2C)OC1(C)C` (configuration not stated), the viability, T/C (compound 0.0316 µM) was 99.2% [middle of 13 runs], the viability, T/C (compound 0.1 µM) was 105% [middle of 13 runs] and the viability, T/C (compound 0.316 µM) was 99.3% [middle of 13 runs]. For the same molecule, the viability, T/C (compound 3.16 µM) was 102% [middle of 13 runs], the viability, T/C (compound 10 µM) was 102% [middle of 13 runs] and the IC50 (compound alone, run of 01/08/2024) was > 10 µM.
